Results published in the supplement of paper PMC10307832.

Columns and labels:
Assay in all cases: relative viability (nuclei count vs DMSO), 5 days (fraction); higher = more cells survive
[1] = compound: CC(C)C[C@H](NC(=O)[C@H](Cc1ccccc1)NC(=O)c1cnccn1)B(O)O [Bortezomib]
In short: (§1)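 Lung cancer cell lines were seeded into 1536-well plates, kept overnight at 37 °C and pinned with five library-drug doses (not always all listed) spaced by √10. After 5 days, nuclei were Hoechst-stained, imaged at 4× and counted with MetaXpress. Viability is treated-well nuclei over vehicle-well nuclei, taken as a median across plates. Plates needed control CV below 25% and at least one doubling.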

[2] = compound: CC1=CC(=NN1)NC2=CC(=NC(=N2)/C=C/C3=CC=CC=C3)N4CCN(CC4)C
In short: as §1

[3] = compound: COC1=CC(c2cc3ccccc3[nH]2)=N/C1=C\c1[nH]c(C)cc1C [Obatoclax]
In short: as §1

Cell Line | relative viability ([1]; 0.0002 µM) | relative viability ([1]; 0.000632 µM) | relative viability ([1]; 0.002 µM) | relative viability ([1]; 0.002 µM, anchor plate) | relative viability ([1]; 0.006325 µM) | relative viability ([1]; 0.02 µM) | relative viability ([2]; 0.08 µM) | relative viability ([2]; 0.253 µM) | relative viability ([2]; 0.8 µM) | relative viability ([2]; 2.53 µM) | relative viability ([2]; 8 µM) | relative viability ([3]; 0.01 µM) | relative viability ([3]; 0.03162 µM) | relative viability ([3]; 0.1 µM) | relative viability ([3]; 0.3162 µM) | relative viability ([3]; 1 µM)
HOP-62 | 1.02 | 0.985 | 0.925 | 0.791 | 0.477 | 0.076 | 1.03 | 1.11 | 1.04 | 0.825 | 0.367 | 1.01 | 0.985 | 0.889 | 1.02 | 1.05
IA-LM | 0.871 | 0.991 | 0.833 | 0.817 | 0.0932 | 0.0256 | 0.852 | 1.07 | 1.1 | 0.866 | 0.231 | 0.93 | 0.935 | 0.854 | 0.625 | 0.203
LC-2-ad | 0.877 | 0.815 | 0.99 | 1.01 | 0.257 | 0.198 | 1.02 | 0.996 | 0.799 | 0.303 | 0.177 | 0.988 | 0.988 | 0.81 | 0.896 | 0.564
LCLC-97TM1 | 0.943 | 0.729 | 1.08 | 0.744 | 0.439 | 0.118 | 0.911 | 0.963 | 0.912 | 0.504 | 0.121 | 0.988 | 0.801 | 1.31 | 0.856 | 0.908
LCLC-103H | 0.982 | 0.94 | 1.01 | 1.05 | 0.92 | 0.278 | 0.998 | 1.07 | 1.02 | 0.835 | 0.694 | 0.978 | 0.894 | 0.926 | 0.965 | 1.08
LK-2 | 0.841 | 0.89 | 0.647 |  | 0.209 | 0.182 | 1.04 | 1.02 | 0.809 | 0.47 | 0.127 | 1.03 | 1.01 | 1.17 | 0.932 | 1.11
LOU-NH91 | 0.828 | 0.825 | 0.497 | 0.518 | 0.307 | 0.365 | 0.928 | 1.08 | 0.991 | 0.806 | 0.424 | 0.974 | 0.932 | 0.68 | 0.853 | 0.854
LU99A |  | 0.737 | 1.03 | 1.14 | 0.797 | 0.303 | 1.02 | 0.883 | 0.786 | 0.426 | 0.269 | 0.925 | 0.963 | 0.622 | 0.922 | 0.364
LXF-289 | 0.987 | 0.999 | 1.04 | 0.994 | 0.185 | 0.0884 | 0.993 | 1.02 | 0.964 | 0.863 | 0.435 | 0.97 | 1.03 | 0.989 | 0.982 | 0.951
NCI-H23 | 0.777 | 0.72 | 0.995 | 1.09 | 0.294 | 0.134 | 0.891 | 0.886 | 0.796 | 0.225 | 0.144 | 1.01 | 0.853 | 0.832 | 0.761 | 0.389
NCI-H322M | 0.922 |  | 0.918 | 1.24 | 0.458 | 0.421 | 0.951 | 0.969 | 0.847 | 0.413 | 0.281 | 0.975 | 0.783 | 1.16 | 1 | 1.01
